According to patent US20110020312A1, “METHODS FOR TREATMENT OF METABOLIC DISORDERS USING EPIMETABOLIC SHIFTERS, MULTIDIMENSIONAL INTRACELLULAR MOLECULES, OR ENVIRONMENTAL INFLUENCERS” (priority 2009, published 2011):

Tests used:
normal fibroblast = test: Bcl2 level after co-administration of CoQ-10 and VEGF; format: cell-based; details: co-administration with VEGF
PaCa2 cells = test: Nexin assay for apoptosis (Annexin-V-PE/7-AAD flow cytometry), 24 h Q10; format: cell-based; details: 50 μM Q10 and 100 μM Q10, 24 hours
Text: The 7AAD dye will enter into cells with permeabilized cell membranes; primarily those cells that are in late apoptosis. Annexin-V-PE is a dye that binds to Phosphotidyl serine, which is exposed on the outer surface of the plasma membrane in early apoptotic cells. The Nexin reagent thus can be used to differentiate between different populations of apoptotic cells in a flow cytometer.

[1] = system: Lactate Dehydrogenase (LDH); test: Western blot, Lactate Dehydrogenase levels; format: cell-based, human
Description: The samples were processed and run on a 4-12% Bis-Tris Novex NuPAGE gel as described above. The gels were run, transferred and stained essentially as described above.
After transfer each blot was dried for 15-20 minutes, activated with methanol for 5 seconds, washed with water for 5 minutes, and TBST for 15 minutes. The blots were blocked for 1 hour with 5% blocking reagent in TBS-T at room temperature and then washed 3 times with TBS-T (1×-15′; 2×5′ each) and probed with the primary antibody for Lactate Dehydrogenase (abcam ab2101; polyclonal) in 5% BSA (at 1:1000 dilutions) by incubation overnight at 4 deg C. with shaking. After the overnight incubation with primary antibody for Lactate Dehydrogenase, the blots were washed 3 times with TBS-T (1×-15′; 2×5′ each) and probed with the secondary antibody (rabbit antigoat; 1:10,000 dilution) for 1 h at room temperature. After 1 h of incubation with secondary antibodies, the blots were washed 3 times with TBS-T (1×-15′; 2×5′ each) and then incubated with ECF reagent for 5 mins and then each blot scanned with 5100 Fuji Laser scanner at 25 uM resolution, 16 bit, green laser, at 400V and at 500 V.
The PACA2 samples were processed and the gels were run, transferred, stained and scanned essentially as described above.
The levels of LDH and PDH were determined by probing the blots successively with primary antibodies for LDH and PDH, essentially as described above.
The above blots were stripped by incubating for 30 minutes with methanol, followed by two 10 minute washes with TBS-T, then 30 minutes of incubation with Stripping buffer at 50 deg C., and followed by two washes with 100 ml or more of TBS-T for 30′ each. The blots were scanned in laser scanner to check for complete stripping. The blots were activated with methanol for 5 seconds, washed with water for 5 minutes, and TBST for 15 minutes. The blots were blocked for 1 hour with 5% blocking reagent in TBS-T at room temperature and then washed 3 times with TBS-T (1×-15′; 2×5′ each) and probed with the primary antibody for LDH or Bik in 5% BSA in TBS-T by incubation overnight at 4 deg C. with gentle shaking. The primary antibody for LDH was from Abcam ab2101; antigoat; at 1:1000 dilution. The primary antibody for Bik was from Cell Signaling #9942; antirabbit; at 1:1000 dilution. After incubation with primary antibodies, the membranes were washed 3 times with TBS-T (1×-15′; 2×5′ each) and probed with the secondary antibody (LDH antigoat; Jackson Laboratories) and Bik antirabbit; 1:10,000 dilution) for 1 h on the orbital tilting shaker at room temperature. After 1 h of incubation, the blots were washed 3 times with TBS-T (1×-15′; 2×5′ each) and incubated with ECF reagent for 5 minutes and then each blot scanned with 5100 Fuji Laser scanner at 25 uM resolution, 16 bit, green laser, at 400V and at 500 V.
The above blots were stripped by incubating for 30 minutes with methanol, followed by two 10 minute washes with TBS-T, then 30 minutes of incubation with stripping buffer at 50 deg C., and followed by two washes with 100 ml or more of TBS-T for 30′ each. The blots were activated with methanol for 5 seconds, washed with water for 5 minutes, and TBST for 15 minutes. The blots ere blocked for 1 hour with 5% blocking reagent in TBS-T at room temperature and then washed 3 times with TBS-T (1×-15′; 2×5′ each) and probed with the primary antibody for LDH in 5% BSA or 5% milk by incubation overnight at 4 deg C. with gentle shaking. The primary antibody for LDH 080309b1 (Abcam ab2101; antigoat) was at 1:1000 dilution in 5% BSA. The primary antibody for LDH 080309b2 (Abcam ab2101; antigoat) was at 1:1000 dilution in 5% milk. After incubation with primary antibodies, the membranes were washed 3 times with TBS-T (1×-15′; 2×5′ each) and probed with the secondary antibody (Jackson Immuno Research antigoat; 1:10,000 dilution; 305-055-045) for 1 h. […]

In the case of `COC1=C(OC)C(=O)C(C/C=C(\C)CC/C=C(\C)CC/C=C(\C)CC/C=C(\C)CC/C=C(\C)CC/C=C(\C)CC/C=C(\C)CC/C=C(\C)CC/C=C(\C)CCC=C(C)C)=C(C)C1=O` [Q10, Coenzyme Q10], the “levels of Bcl2” value (normal fibroblast) is reported as “no effect”, the “increase in both early and late apoptotic cells” value (PaCa2 cells) is reported as 5-10 % of gated cells and the Lactate Dehydrogenase Average Volume as a % ([1]; HepG2, 5g24-50, 2 Experiments) is reported as 64%. The Lactate Dehydrogenase Average Volume as a % ([1]; HepG2, 5g24-100, 2 Experiments) was 106%, the Lactate Dehydrogenase Average Volume as a % ([1]; HepG2, 5g48-50, 2 Experiments) was 112% and the Lactate Dehydrogenase Average Volume as a % ([1]; HepG2, 5g48-100, 2 Experiments) was 121%. The “Lactate Dehydrogenase Normalized Volume” value ([1]; HepG2, 5g-50, 24 h) was 7900, the “Lactate Dehydrogenase Normalized Volume” value ([1]; HepG2, 5g-50, 48 h) was 5188 and the “Lactate Dehydrogenase Normalized Volume” value ([1]; HepG2, 5g-100, 24 h) was 6616. For the same compound, the “Lactate Dehydrogenase Normalized Volume” value ([1]; HepG2, 5g-100, 48 h) was 7319, the Lactate Dehydrogenase Average Volume as a % ([1]; HepG2, 22G24-50, 2 Experiments) was 121% and the Lactate Dehydrogenase Average Volume as a % ([1]; HepG2, 22G24-100, 2 Experiments) was 144%. For the same compound, the Lactate Dehydrogenase Average Volume as a % ([1]; HepG2, 22G48-50, 2 Experiments) was 95%, the Lactate Dehydrogenase Average Volume as a % ([1]; HepG2, 22G48-100, 2 Experiments) was 67% and the “Lactate Dehydrogenase Normalized Volume” value ([1]; HepG2, 22G-50, 24 h) was 7550. The “Lactate Dehydrogenase Normalized Volume” value ([1]; HepG2, 22G-50, 48 h) was 6173, the “Lactate Dehydrogenase Normalized Volume” value ([1]; HepG2, 22G-100, 24 h) was 7124 and the “Lactate Dehydrogenase Normalized Volume” value ([1]; HepG2, 22G-100, 48 h) was 9141. The “Lactate Dehydrogenase Normalized Volume” value ([1]; PACA2, 5g-50, 24 h) was 5068, the “Lactate Dehydrogenase Normalized Volume” value ([1]; PACA2, 5g-50, 48 h) was 2978 and the “Lactate Dehydrogenase Normalized Volume” value ([1]; PACA2, 5g-100, 24 h) was 3675. For the same compound, the “Lactate Dehydrogenase Normalized Volume” value ([1]; PACA2, 5g-100, 48 h) was 2396, the “Lactate Dehydrogenase Normalized Volume” value ([1]; PACA2, 22G-50, 24 h) was 10218 and the “Lactate Dehydrogenase Normalized Volume” value ([1]; PACA2, 22G-50, 48 h) was 2575. The “Lactate Dehydrogenase Normalized Volume” value ([1]; PACA2, 22G-100, 24 h) was 7158, the “Lactate Dehydrogenase Normalized Volume” value ([1]; PACA2, 22G-100, 48 h) was 3557 and the “Lactate Dehydrogenase (LDH) expression” value ([1]; cancer) was “reduced”. The “Lactate Dehydrogenase (LDH) expression” value ([1]; normal cells) was “minimal effect”.
